The values that follow come from ChEMBL document CHEMBL1201862, “PubChem BioAssay data set” (2004).

Structures are written as SMILES.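 Exposure lasted 48 hours, with cells grown in 96-well plates and compounds tested at five concentrations. The concentration for 50% growth inhibition is given as GI50.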 The source made the active and inactive calls. No stated cut-off is given here; in the data, active = GI50 up to about 1.1 µM and inactive = higher. Some results are limits rather than exact numbers.

Holding throughout (assay): inhibition of tumour cell growth, NCI panel, 48 h
Assay [1] has as its system EKVX.
The subject of assay [2] is NCI/ADR-RES.
The test system of assay [3] is HCT-116.
Assay [4] concerns HL-60.
The test system of assay [5] is Malme-3M.
The test system of assay [6] is COLO 205.
Assay [7] relates to OVCAR-3.
Assay [8] concerns CCRF-CEM.
Assay [9] relates to DU-145.
Assay [10] has as its system RXF 393.
Assay [11] has as its system KM12.
Assay [12] deals with UACC-257.
Assay [13] concerns NCI-H522.
In assay [14] the test system is A549.
The test system of assay [15] is OVCAR-4.
The subject of assay [16] is SNB-19.
Assay [17] concerns UO-31.
The test system of assay [18] is IGROV-1.
Assay [19] relates to NCI-H460.
The subject of assay [20] is MDA-MB-231.

With `CN1C(C(=O)Nc2ccccn2)=C(O)c2ccccc2S1(=O)=O` [PIROXICAM], the GI50 in [1], in assay [2], in assay [3], in assay [4], in [5] and in assay [6] was > 100 µM (inactive) in each case. Also, the GI50 in [7], in [8], in [9], in [10], in [11] and in assay [12] was > 100 µM (inactive) in each case. For the same compound, the GI50 in assay [13], in [14], in [15], in assay [16] and in assay [17] was > 100 µM (inactive) each time.

In the case of `O=C(Nc1nc2ncn(CCI)c2c(=O)[nH]1)c1ccccc1`, the GI50 was > 80.4 µM (inactive) in [1]; > 100 µM (inactive) in assay [3]; > 100 µM (inactive) in assay [4]; > 100 µM (inactive) in [18]; > 100 µM (inactive) in [5]; > 100 µM (inactive) in assay [19]. Moreover, the GI50 in assay [6] is > 100 µM (inactive); in [7], 52.8 µM (inactive); in assay [8] it was > 100 µM (inactive); in assay [10] it was 26.9 µM (inactive); in assay [11], > 100 µM (inactive); in [12] it was > 100 µM (inactive). In addition, the GI50 in assay [13] was 28.3 µM (inactive); in assay [14], 76 µM (inactive); in [15], > 100 µM (inactive); in assay [16] it was 41.9 µM (inactive); in assay [17], > 90.4 µM (inactive).

Consider `CC(=O)OCSc1ncnc2c1ncn2CN1CCOCC1`, for which the GI50 in [1] was > 100 µM (inactive); in [3] it was 14.4 µM (inactive); in [4] it was 6.22 µM (inactive); in assay [18], 52.5 µM (inactive); in assay [5], 24.9 µM (inactive); in assay [19], 18.2 µM (inactive). Moreover, the GI50 in assay [6] was 18.8 µM (inactive); in [7], 7.23 µM (inactive); in assay [8], 1.98 µM (inactive); in assay [10], 14.8 µM (inactive); in assay [11] it was 51.1 µM (inactive); in assay [12], 53.5 µM (inactive). The GI50 in assay [13] is 3.27 µM (inactive); in assay [14], 44.6 µM (inactive); in assay [15], 23 µM (inactive); in assay [16], > 100 µM (inactive); in assay [17], 8.38 µM (inactive).

For `O=C(Nc1ccccc1[N+](=O)[O-])C(=O)C(C(=O)c1ccccc1-c1ccccc1)C1OC(=O)c2ccccc21` (stereo unspecified), the GI50 in assay [1] was 20.2 µM (inactive); in assay [3] it was 18.2 µM (inactive); in assay [4], 14.7 µM (inactive); in [18], 23.7 µM (inactive); in assay [5], 13 µM (inactive); in [19] it was 15.9 µM (inactive). The GI50 was 16.1 µM (inactive) in assay [6]; 14 µM (inactive) in assay [7]; 13.5 µM (inactive) in assay [8]; 12.1 µM (inactive) in assay [10]; 16.2 µM (inactive) in [11]; 16.6 µM (inactive) in assay [12]. The GI50 in [13] was 12.5 µM (inactive); in [14], 24.5 µM (inactive); in assay [15], 24.1 µM (inactive); in assay [16], 13.6 µM (inactive); in assay [17] it was 15.6 µM (inactive).

As to `COc1cc(/C=C/c2ccncc2)cc(OC)c1OC`, the GI50 in assay [1] is 13.1 µM (inactive); in [3] it was > 100 µM (inactive); in assay [4] it was 24.6 µM (inactive); in [18], 74.6 µM (inactive); in assay [5] it was > 100 µM (inactive); in [19], > 100 µM (inactive). Moreover, the GI50 was > 100 µM (inactive) in [6]; 94.2 µM (inactive) in assay [7]; 42.9 µM (inactive) in [8]; 26.4 µM (inactive) in assay [10]; > 100 µM (inactive) in assay [11]; > 100 µM (inactive) in [12]. Moreover, the GI50 in assay [13] is 32.3 µM (inactive); in assay [14], > 100 µM (inactive); in assay [15], 76.9 µM (inactive); in assay [16], > 100 µM (inactive); in assay [17], 24.4 µM (inactive).

Regarding `COc1ccc(OC)c(/C=N/N=C(\N)NO)c1`, the GI50 in assay [1] was 13.3 µM (inactive); in [3], 24.5 µM (inactive); in assay [4], 25.4 µM (inactive); in [18], 29.6 µM (inactive); in assay [5], 36.8 µM (inactive); in assay [19] it was 15 µM (inactive). Moreover, the GI50 is 10.6 µM (inactive) in assay [6]; 23.8 µM (inactive) in [7]; 16.6 µM (inactive) in [8]; 39.5 µM (inactive) in [10]; 22.4 µM (inactive) in assay [11]; 30.5 µM (inactive) in [12]. The GI50 in [13] is 14.3 µM (inactive); in [14], 8.22 µM (inactive); in assay [15] it was 7.28 µM (inactive); in [16] it was 88.7 µM (inactive); in assay [17], 14.2 µM (inactive).

Consider `O=C1c2cccc3cc([N+](=O)[O-])cc(c23)C(=O)N1CCNCCNCCNCCN1C(=O)c2cccc3cc([N+](=O)[O-])cc(c23)C1=O`, for which the GI50 in [1] was 0.112 µM (active); in assay [3] it was < 0.001 µM (active); in [4] it was 0.01 µM (active); in [18], 0.01 µM (active); in assay [5] it was 0.111 µM (active); in [19] it was < 0.001 µM (active). Besides, the GI50 in assay [6] is 0.01 µM (active); in assay [7], 0.109 µM (active); in assay [8] it was 0.00122 µM (active); in assay [10] it was 0.122 µM (active); in [11], < 0.001 µM (active); in assay [12], 0.0311 µM (active). For the same compound, the GI50 in assay [13] is 0.116 µM (active); in assay [14], < 0.001 µM (active); in assay [15], 0.0117 µM (active); in assay [16] it was < 0.001 µM (active); in assay [17], 0.033 µM (active).

In the case of `CCC12C=CCN3CCC4(C(=C(C(=O)OC)[C@@H]1O)Nc1ccccc14)C32` (stereo partly specified), the GI50 in [1] was 1.85 µM (inactive); in [3] it was 1.57 µM (inactive); in assay [4] it was 2 µM (inactive); in assay [18], 1.83 µM (inactive); in [5], 1.74 µM (inactive); in assay [19], 1.87 µM (inactive). Besides, the GI50 is 1.81 µM (inactive) in [6]; 1.99 µM (inactive) in [7]; 1.76 µM (inactive) in assay [8]; 1.36 µM (inactive) in [10]; 1.7 µM (inactive) in assay [11]; 1.1 µM (active) in assay [12]. For the same compound, the GI50 is 1.61 µM (inactive) in assay [13]; 2.09 µM (inactive) in assay [14]; 2.12 µM (inactive) in assay [15]; 1.91 µM (inactive) in [16]; 2.4 µM (inactive) in assay [17].

For `Cc1ccc(Sc2ccccc2N)cc1`, the GI50 in assay [1] was 54.6 µM (inactive); in assay [3], 35.6 µM (inactive); in assay [4], 18.9 µM (inactive); in assay [18], 37.7 µM (inactive); in assay [5], 46.5 µM (inactive); in assay [19], 30.4 µM (inactive). Also, the GI50 in assay [6] is 40 µM (inactive); in [7], 44.7 µM (inactive); in assay [8] it was 23.2 µM (inactive); in assay [10], 18.7 µM (inactive); in assay [11] it was 25.5 µM (inactive); in assay [12] it was 33.4 µM (inactive). Also, the GI50 was 14.8 µM (inactive) in [13]; 39.3 µM (inactive) in [14]; 46.9 µM (inactive) in assay [15]; 38.6 µM (inactive) in assay [16]; 12.8 µM (inactive) in assay [17].

Take `CCOC(=O)c1cc(-c2ccc(OC)cc2)c([N+](=O)[O-])n1C`: the GI50 in assay [1], in assay [2], in [3], in assay [4], in assay [18] and in [5] was > 10 µM (inactive) throughout. Besides, the GI50 is > 10 µM (inactive) in assay [19]; > 10 µM (inactive) in [7]; > 10 µM (inactive) in [8]; > 10 µM (inactive) in assay [9]; 2.13 µM (inactive) in assay [10]; > 10 µM (inactive) in assay [11]. For the same compound, the GI50 in assay [12], in assay [13], in assay [14], in [15], in assay [16] and in assay [17] was > 10 µM (inactive) each time.

Take `CCN(CCCl)CCCNc1c2ccccc2nc2ccc(OC)cc12`: the GI50 was 1.02 µM (active) in assay [1]; 0.0585 µM (active) in assay [3]; 0.039 µM (active) in assay [4]; 0.102 µM (active) in [18]; 0.603 µM (active) in assay [5]; 0.0802 µM (active) in assay [19]. Further, the GI50 is 0.0964 µM (active) in assay [6]; 1.1 µM (active) in assay [7]; 0.0993 µM (active) in assay [8]; 0.215 µM (active) in assay [10]; 0.141 µM (active) in [11]; 1.16 µM (inactive) in [12]. In addition, the GI50 in assay [13] is 0.144 µM (active); in [14], 0.232 µM (active); in assay [15] it was 0.682 µM (active); in [16], 1.05 µM (active); in assay [17], 1.29 µM (inactive).

Turning to `O=C(O)c1nc2cc(C(F)(F)F)ccc2nc1Nc1ccc(Cl)c(Cl)c1`, the GI50 was 17.9 µM (inactive) in assay [1]; 10.5 µM (inactive) in assay [2]; 9.23 µM (inactive) in assay [3]; 18 µM (inactive) in assay [18]; 20.1 µM (inactive) in assay [5]; 13.5 µM (inactive) in [19]. For the same compound, the GI50 in assay [6] is 16.6 µM (inactive); in [7] it was 13.5 µM (inactive); in [8] it was > 10 µM (inactive); in [10], 20.9 µM (inactive); in assay [11], 12.9 µM (inactive); in assay [12], 20.7 µM (inactive). The GI50 is 15.8 µM (inactive) in assay [13]; 8.79 µM (inactive) in assay [14]; 21.2 µM (inactive) in assay [15]; 20.7 µM (inactive) in assay [20]; 8.95 µM (inactive) in assay [16]; 14.4 µM (inactive) in assay [17].
